{"source": "patent US5403726A", "about": "“Enzymatic process for producing a galactosylβ1,3glycal disaccaride using β-galactosidase” (priority 1992, dated 1995)", "target": "β-galactosidase (E. coli) (Escherichia coli, UniProt P00722)", "sequence (P00722 whole entry)": "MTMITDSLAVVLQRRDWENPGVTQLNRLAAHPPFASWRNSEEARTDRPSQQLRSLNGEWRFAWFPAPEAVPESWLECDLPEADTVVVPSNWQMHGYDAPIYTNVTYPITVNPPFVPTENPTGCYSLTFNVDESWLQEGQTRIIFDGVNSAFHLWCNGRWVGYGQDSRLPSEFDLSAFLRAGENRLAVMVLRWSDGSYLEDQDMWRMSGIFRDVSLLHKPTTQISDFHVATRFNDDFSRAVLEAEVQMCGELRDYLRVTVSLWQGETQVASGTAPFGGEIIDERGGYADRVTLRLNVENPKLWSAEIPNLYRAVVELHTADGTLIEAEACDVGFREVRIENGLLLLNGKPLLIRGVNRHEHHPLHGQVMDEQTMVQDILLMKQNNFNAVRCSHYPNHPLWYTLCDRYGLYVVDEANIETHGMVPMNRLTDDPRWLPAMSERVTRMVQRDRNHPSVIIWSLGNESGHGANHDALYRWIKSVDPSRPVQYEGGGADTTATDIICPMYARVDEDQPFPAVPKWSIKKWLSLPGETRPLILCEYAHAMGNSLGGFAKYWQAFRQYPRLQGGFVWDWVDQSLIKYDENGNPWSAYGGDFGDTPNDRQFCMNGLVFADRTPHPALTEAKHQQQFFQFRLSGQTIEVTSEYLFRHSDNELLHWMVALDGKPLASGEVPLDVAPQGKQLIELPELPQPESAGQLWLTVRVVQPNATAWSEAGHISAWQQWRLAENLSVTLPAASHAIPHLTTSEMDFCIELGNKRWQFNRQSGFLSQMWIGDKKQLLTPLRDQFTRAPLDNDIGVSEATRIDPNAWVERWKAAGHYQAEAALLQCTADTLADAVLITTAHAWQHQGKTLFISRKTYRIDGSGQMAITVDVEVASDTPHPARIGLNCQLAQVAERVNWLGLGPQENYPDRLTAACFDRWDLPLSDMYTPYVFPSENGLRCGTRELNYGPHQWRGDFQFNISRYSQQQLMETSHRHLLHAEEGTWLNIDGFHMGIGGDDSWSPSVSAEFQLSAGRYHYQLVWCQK", "assay": "β-galactosidase-mediated coupling reaction with glycal as potential acceptor", "format": "biochemical", "details": "donor GalβpNO2 Ph (Compound 1); no reaction product", "description": "To increase the yield of disaccharide, activated donors were used illustratively here in the kinetic method of glycosidic bond formation. [Nilsson, I. Trends Biotechnol., 6:256 (1988) and the citations therein]. Disaccharide formation was initially examined using commercially available E. coli β-galactosidase [EC 3.2.1.23] and 4-nitrophenyl β-galactopyranoside (Compound 1) as the galactose donor and glucal (Compound 2) [Hodgson, Biotechnology, 9:609 (1991)] as the acceptor. The reaction was monitored by thin layer chromatograph (TLC). After no additional nitrophenyl galactoside appeared to be consumed (19-26 hours), the reaction was terminated.\nIn a typical procedure, Compound 1 (77 mg, 0.26 mmol) and […] (54 mg, 0.36 mmol) were combined at 25° C. with E. coli β-galactosidase (75 units) in 4 mL of a 0.07 M PIPES/0.2M NaOAc/0.1M EDTA solution at pH 6.5. The progress of the reaction was monitored by TLC (silica gel, 7:2:1 iPrOH--NH4 OH--H2 O). After 26 hours, the solvent was removed in vacuo and the residue treated with acetic anhydride (2 mL) and pyridine (2 mL). After an additional 12 hours, the mixture was concentrated in vacuo and the residue purified by silica gel chromatography (2:3 ethyl acetate-hexanes) to afford a 2.3:1 mixture of β-1,3 and β-1,6 isomers (72 mg, 50 percent). […] The position of the glycoside linkage was unambiguously determined by ^1 H NMR decoupling studies. […]"}
{"compound": "OC[C@H]1OC=C[C@@H](O)[C@H]1O", "note": "[Galactal]", "values": [{"measurement": "behaviour as potential acceptor in the β-galactosidase coupling reaction (inhibitor)", "value": "acted as an inhibitor"}]}
